# Experimental data from patent US8173645B2 (Takeda San Diego, Inc., priority 2007, dated 2012).
# Target: T1, glucokinase (GK), residues 12-465 of the human enzyme (Homo sapiens, UniProt P35557)
# T1 construct: I.D. No. 1 corresponds to residues 12-465 of glucokinase; made in house; host or cells: E. coli DH10b-Tlr
# T1 sequence (P35557 with tags, fused parts or gaps isoform P35557-2): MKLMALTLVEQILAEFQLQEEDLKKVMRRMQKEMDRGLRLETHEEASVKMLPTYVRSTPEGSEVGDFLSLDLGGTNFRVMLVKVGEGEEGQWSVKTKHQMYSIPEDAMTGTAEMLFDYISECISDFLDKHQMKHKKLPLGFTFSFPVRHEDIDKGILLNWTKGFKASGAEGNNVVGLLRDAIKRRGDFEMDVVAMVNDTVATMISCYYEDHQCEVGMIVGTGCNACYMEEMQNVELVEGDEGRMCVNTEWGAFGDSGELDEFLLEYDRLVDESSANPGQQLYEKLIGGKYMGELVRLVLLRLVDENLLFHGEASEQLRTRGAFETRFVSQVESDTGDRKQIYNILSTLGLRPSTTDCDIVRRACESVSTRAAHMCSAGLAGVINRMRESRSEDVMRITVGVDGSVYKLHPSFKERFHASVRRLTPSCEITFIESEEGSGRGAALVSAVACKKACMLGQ
# Experiment: Enzymatic glucokinase activity assay (KinaseGlo luminescence, ATP consumption)
# Format: biochemical
# Details: 5 μM ATP, 5 mM Glucose; for EC50: GK activation, Kact = concentration giving 50% of the maximal increase in GK activity, read-out: pKact; for Emax: calculated maximal gain in GK enzyme activity at a saturating concentration of the compound, read-out: % ACTmax
# Source text: The activity of compounds as glucokinase activators may be assayed in vitro, in vivo or in a cell line. Provided below is an enzymatic glucokinase activity assay.
# Purified glucokinase may be obtained as follows. DNA encoding residues 12-465 of the full-length sequence of the human enzyme may be amplified by PCR and cloned into the HindIII and EcoRI sites of pFLAG-CTC (Sigma). SEQ. I.D. No. 1 corresponds to residues 12-465 of glucokinase.
# The expression of recombinant glucokinase protein may be carried out by transformation and growth of DH10b-Tlr E. coli cells incorporating the (pFLAG-CTC) plasmid in LB media. Protein expression can be induced in this system by the addition of IPTG to the culture medium.
# Recombinant protein may be isolated from cellular extracts by passage over Sepharose Q Fast Flow resin (Pharmacia). This partially purified GK extract may then be further purified by a second passage over Poros HQ 10 (Applied Biosystems). The purity of GK may be determined on denaturing SDS-PAGE gel. Purified GK may then be concentrated to a final concentration of 20.0 mg/ml. After flash freezing in liquid nitrogen, the proteins can be stored at −78° C. in a buffer containing 25 mM TRIS-HCl pH 7.6, 50 mM NaCl, and 0.5 mM TCEP.
# The activation properties of compounds for GK may be determined using a black 384-well-plate format under the following reaction conditions: 25 mM Hepes pH 7.2, 25 mM NaCl, 10 mM MgCl2, 0.01% Brij35, 1 mM DTT, 5 μM ATP, 5 mM Glucose 2% DMSO. The amount of ATP consumed may be determined quantitatively by addition of equal volume of luciferase reagent (luciferase+beetle luciferin—KinaseGlo Luminescent Kinase Assay kit from Promega). The luminescence intensity may be measured by using the Analyst HT from LJL Biosystems.
# The assay reaction may be initiated as follows: 4 μl of substrate mixture (12.5 μM ATP and 12.5 mM Glucose) was added to each well of the plate, followed by the addition of 2 μl of activator (2 fold serial dilutions for 11 data points for each activator) containing 10% DMSO. 4 μL of 1.25 nM GK solution may be added to initiate the reaction. The reaction mixture may then be incubated at room temperature for 60 min, and quenched and developed by addition of 10 μL of luciferase reagent. Luminescence intensities of the resulting reaction mixtures may be measured after a 10 min incubation at room temperature. The luminescence intensity may be measured by using the Analyst HT from LJL Biosystems.
# pKact and % ACTmax values may be calculated by non-linear curve fitting of the compound concentrations and luminescence intensities to a standard inhibition/activation equation.
Structure (SMILES),EC50 [µM],Emax [%]
"O=C(Nc1ncc(Cl)s1)[C@H](CC1CCOCC1)N1CCN(S(=O)(=O)c2ccc(F)cc2)CC1=O [Example 34, (S)-N-(5-chlorothiazol-2-yl)-2-(4-(4-fluorophenylsulfonyl)-2-oxopiperazin-1-yl)-3-(tetrahydro-2H-pyran-4-yl)propanamide]",1.58 to 2.51,97.1 to 107
"O=C(Nc1nccs1)[C@H](CC1CCCCC1)N1CCN(C(=S)Nc2cccc3ccccc23)CC1=O [Example 80, (S)-3-cyclohexyl-2-(4-(naphthalen-1-ylcarbamothioyl)-2-oxopiperazin-1-yl)-N-(thiazol-2-yl)propanamide]",1.58 to 2.51,97.1 to 107
"COc1ccc(S(=O)(=O)N2CCN([C@@H](CC3CCCCC3)C(=O)Nc3nccs3)C(=O)C2)cc1F [Example 99, (S)-3-cyclohexyl-2-(4-(3-fluoro-4-methoxyphenylsulfonyl)-2-oxopiperazin-1-yl)-N-(thiazol-2-yl)propanamide]",0.794 to 1.26,108 to 119
"O=C(Nc1nccs1)[C@H](CC1CCCCC1)N1CCN(C(=S)Nc2ccc(Cl)cc2)CC1=O [Example 125, (S)-2-(4-(4-chlorophenylcarbamothioyl)-2-oxopiperazin-1-yl)-3-cyclohexyl-N-(thiazol-2-yl)propanamide]",≥ 3.16,97.1 to 107
"O=C(Nc1nccs1)[C@H](CC1CCCCC1)N1CCN(S(=O)(=O)c2ccc(F)cc2)CC1=O [Example 89, (S)-3-cyclohexyl-2-(4-(4-fluorophenylsulfonyl)-2-oxopiperazin-1-yl)-N-(thiazol-2-yl)propanamide]",0.794 to 1.26,97.1 to 107
"COc1ccc(CCNC(=O)N2CCN([C@@H](CC3CCCCC3)C(=O)Nc3nccs3)C(=O)C2)cc1OC [Example 143, (S)-4-(3-cyclohexyl-1-oxo-1-(thiazol-2-ylamino)propan-2-yl)-N-(3,4-dimethoxyphenethyl)-3-oxopiperazine-1-carboxamide]",≥ 3.16,≥ 119
"O=C(Nc1nccs1)[C@H](CC1CCCCC1)N1CCN(S(=O)(=O)c2ccc(F)c(Cl)c2)CC1=O [Example 177, (S)-2-(4-(3-chloro-4-fluorophenylsulfonyl)-2-oxopiperazin-1-yl)-3-cyclohexyl-N-(thiazol-2-yl)propanamide]",1.58 to 2.51,74.1 to 97
"CC(C)S(=O)(=O)N1CCN([C@@H](CC2CCCCC2)C(=O)Nc2nccs2)C(=O)C1 [Example 59, (S)-3-cyclohexyl-2-(4-(isopropylsulfonyl)-2-oxopiperazin-1-yl)-N-(thiazol-2-yl)propanamide]",1.58 to 2.51,≥ 119
"O=C(Nc1nccs1)[C@H](CC1CCCCC1)N1CCN2[C@@H](CCS2(=O)=O)C1=O [Example 31, (S)-3-Cyclohexyl-N-thiazol-2-yl-2-((S)-1,1,4-trioxo-hexahydro-1λ*6*-thia-5,7a-diaza-inden-5-yl)-propionamide]",≥ 3.16,74.1 to 97
"O=C(Nc1ncc(Cl)s1)[C@H](CC1CCOCC1)N1CCN(S(=O)(=O)C2CCCC2)CC1=O [Example 28, (S)-N-(5-chlorothiazol-2-yl)-2-(4-(cyclopentylsulfonyl)-2-oxopiperazin-1-yl)-3-(tetrahydro-2H-pyran-4-yl)propanamide]",≤ 0.631,≥ 119
"O=C(Nc1nccs1)[C@H](CC1CCCCC1)N1CCN(S(=O)(=O)c2ccc(Cl)c(Cl)c2Cl)CC1=O [Example 220, (S)-3-cyclohexyl-2-(2-oxo-4-(2,3,4-trichlorophenylsulfonyl)piperazin-1-yl)-N-(thiazol-2-yl)propanamide]",0.794 to 1.26,≤ 74
O=C(Nc1nccs1)[C@H](CC1CCCCC1)N1CCN(S(=O)(=O)Cc2ccc(Cl)cc2)CC1=O [Example 69],1.58 to 2.51,97.1 to 107
"O=C(Nc1nccs1)[C@H](CC1CCCCC1)N1CCN(S(=O)(=O)c2cnc(Cl)c(Br)c2)CC1=O [Example 217, (S)-2-(4-(5-bromo-6-chloropyridin-3-ylsulfonyl)-2-oxopiperazin-1-yl)-3-cyclohexyl-N-(thiazol-2-yl)propanamide]",1.58 to 2.51,≤ 74
"O=C(Nc1nccs1)[C@H](CC1CCCCC1)N1CCN(C(=O)Nc2ccc(Cl)cc2)CC1=O [Example 137, (S)-N-(4-chlorophenyl)-4-(3-cyclohexyl-1-oxo-1-(thiazol-2-ylamino)propan-2-yl)-3-oxopiperazine-1-carboxamide]",≥ 3.16,≤ 74
"O=C(Nc1nccs1)[C@H](CC1CCCCC1)N1CCN(C(=O)Nc2ccc3c(c2)OCCO3)CC1=O [Example 145, (S)-4-(3-cyclohexyl-1-oxo-1-(thiazol-2-ylamino)propan-2-yl)-N-(2,3-dihydrobenzo[b][1,4]dioxin-6-yl)-3-oxopiperazine-1-carboxamide]",≥ 3.16,74.1 to 97
"O=C(Nc1nccs1)[C@H](CC1CCCCC1)N1CCN(S(=O)(=O)c2cc(F)cc(F)c2)CC1=O [Example 105, (S)-3-cyclohexyl-2-(4-(3,5-difluorophenylsulfonyl)-2-oxopiperazin-1-yl)-N-(thiazol-2-yl)propanamide]",≤ 0.631,97.1 to 107
"O=C(Nc1nccs1)[C@H](CC1CCCCC1)N1CCN(C(=S)NC2CCCC2)CC1=O [Example 128, (S)-3-cyclohexyl-2-(4-(cyclopentylcarbamothioyl)-2-oxopiperazin-1-yl)-N-(thiazol-2-yl)propanamide]",0.794 to 1.26,97.1 to 107
"O=C(Nc1nccs1)[C@H](CC1CCCCC1)N1CCN(C(=S)Nc2ccc(Cl)c(Cl)c2)CC1=O [Example 87, (S)-3-cyclohexyl-2-(4-(3,4-dichlorophenylcarbamothioyl)-2-oxopiperazin-1-yl)-N-(thiazol-2-yl)propanamide]",≥ 3.16,74.1 to 97
"O=C(Nc1nccs1)[C@H](CC1CCCCC1)N1CCN(S(=O)(=O)c2cccc3ccccc23)CC1=O [Example 65, (S)-3-cyclohexyl-2-(4-(naphthalen-1-ylsulfonyl)-2-oxopiperazin-1-yl)-N-(thiazol-2-yl)propanamide]",1.58 to 2.51,≤ 74
"O=C(Nc1nccs1)[C@H](CC1CCCCC1)N1CCN(S(=O)(=O)c2ccco2)CC1=O [Example 108, (S)-3-cyclohexyl-2-(4-(furan-2-ylsulfonyl)-2-oxopiperazin-1-yl)-N-(thiazol-2-yl)propanamide]",≤ 0.631,74.1 to 97
"N#Cc1ccc(NC(=O)N2CCN([C@@H](CC3CCCCC3)C(=O)Nc3nccs3)C(=O)C2)cc1 [Example 132, (S)-N-(4-cyanophenyl)-4-(3-cyclohexyl-1-oxo-1-(thiazol-2-ylamino)propan-2-yl)-3-oxopiperazine-1-carboxamide]",≥ 3.16,≤ 74
"O=C(Nc1nccs1)[C@H](CC1CCCCC1)N1CCN(S(=O)(=O)c2cc(F)ccc2F)CC1=O [Example 184, (S)-3-cyclohexyl-2-(4-(2,5-difluorophenylsulfonyl)-2-oxopiperazin-1-yl)-N-(thiazol-2-yl)propanamide]",≤ 0.631,108 to 119
"O=C(Nc1nccs1)[C@H](CC1CCCCC1)N1CCN(C(=S)NCc2cccs2)CC1=O [Example 123, (S)-3-cyclohexyl-2-(2-oxo-4-(thiophen-2-ylmethylcarbamothioyl)piperazin-1-yl)-N-(thiazol-2-yl)propanamide]",1.58 to 2.51,108 to 119
